Assay results: patent US20220288154A1, “GNRH ANTAGONISTS FOR THE TREATMENT OF ESTROGEN-DEPENDENT DISORDERS” (ObsEva S.A., priority 2019, published 2022)
Marks after values point to notes of the source that are not given here.

Columns and labels:
[1] = tested on: human female patients diagnosed as having uterine fibroids; test: PRIMROSE 1 Phase 3 placebo-controlled trial in uterine fibroids; assay type: in vivo
Protocol: (§1) The PRIMROSE 1 study, conducted in the United States, enrolled 526 women. The PRIMROSE 2 study, conducted in the United States and Europe, enrolled 535 women. Patients were randomized to one of several cohorts: […] […] Pain levels were measured using a Verbal Rating Score (VRS), as described herein. Patients were also assessed to determine the proportion that reported an improvement in quality of life using the Uterine Fibroids Symptoms and Health-Related Quality of Life questionnaire.

[2] = biological target: T1, human GnRH receptor (Homo sapiens, UniProt P30968); test: Affinity for human GnRH receptor; assay type: binding
T1 sequence (P30968 1-328): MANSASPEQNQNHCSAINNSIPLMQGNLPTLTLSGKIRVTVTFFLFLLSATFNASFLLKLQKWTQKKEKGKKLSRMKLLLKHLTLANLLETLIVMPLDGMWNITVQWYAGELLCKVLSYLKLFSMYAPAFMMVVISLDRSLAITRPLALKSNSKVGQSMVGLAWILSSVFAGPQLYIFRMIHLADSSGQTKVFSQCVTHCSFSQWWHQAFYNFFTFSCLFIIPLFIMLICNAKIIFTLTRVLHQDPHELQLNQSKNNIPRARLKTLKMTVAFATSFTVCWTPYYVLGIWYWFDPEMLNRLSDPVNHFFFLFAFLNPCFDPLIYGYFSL

[3] = tested on: human female patients diagnosed as having uterine fibroids; test: PRIMROSE 2 Phase 3 placebo-controlled trial in uterine fibroids; assay type: in vivo; conditions: for patients achieving menstrual blood loss ≤80 mL and ≥50% reduction from baseline: 52 weeks
Protocol: as §1

[4] = PRIMROSE 1 and PRIMROSE 2: lumbar spine bone mineral density; assay type: in vivo, human; conditions: 100 mg/day or 200 mg/day + ABT; 24 and 52 weeks
Protocol: To evaluate the safety of compound (VI), patients' bone mineral density levels were measured at baseline and at various timepoints during the studies.

[5] = tested on: human female patients diagnosed as having endometriosis; test: Phase 2b placebo-controlled trial in endometriosis: endometriosis-associated pain (daily electronic diary); assay type: in vivo; conditions: for Dyspareunia Mean (SD) Change from baseline (CFB): 0-3 VRS score; for Dyschezia Mean (SD) CFB: 0-10 NRS score; for Overall Pelvic Pain Responder Rate (VRS score reduction of >30% from baseline): after 52 weeks
Protocol: This example describes the results of a Phase 2b, double-blind, randomized, placebo-controlled, multicenter, human clinical trial undertaken to evaluate the efficacy of a GnRH antagonist represented by formula (VI) in a series of patients suffering from an estrogen-dependent disease. In this trial, a series of human female patients diagnosed as having endometriosis were administered the choline salt of 3-[2-fluoro-5-(2,3-difluoro-6-methoxybenzyloxy)4-methoxyphenyl]-2,4-dioxo-1,2,3,4-tetrahydrothieno[3,4d]pyrimidine-5-carboxylic acid periodically over the course of a 52-week treatment period. After 52 weeks of treatment, the patients were monitored for severity of disease symptoms and bone mineral density.
Participants were women aged 18 to 45 years with surgically confirmed endometriosis and moderate to severe EAP. Women with a history of osteoporosis or other metabolic bone disease were excluded. Certain subjects completing an initial 24-week treatment period were invited to continue in a treatment extension phase, resulting in a total of up to 52 weeks of treatment. Subjects that completed 52 weeks of treatment constituted the treatment extension analysis set (TEAS) of patients.
Patients were randomized to either (i) 50 mg/day, 75, mg/day, 100 mg/day, or 200 mg/day of 3-[2-fluoro-5-(2,3-difluoro-6-methoxybenzyloxy)4-methoxyphenyl]-2,4-dioxo-1,2,3,4-tetrahydrothieno[3,4d]pyrimidine-5-carboxylic acid, administered as a choline salt, or (ii) matching placebo. Patients assigned to the placebo cohort were switched to 100 mg/day of 3-[2-fluoro-5-(2,3-difluoro-6-methoxybenzyloxy)4-methoxyphenyl]-2,4-dioxo-1,2,3,4-tetrahydrothieno[3,4d]pyrimidine-5-carboxylic acid at week 12.
Patients that received 75 mg/day of compound (VI) were divided into two groups: those that received a fixed dose (FD) of compound (VI) at 75 mg/day throughout the 52-week treatment period, and those that received a titrated dose (TD) of 75 mg/day of compound (VI) for the first 12 weeks of the treatment period, followed by a daily dose of either 50 mg, 75 mg, or 100 mg of the compound depending on each patient's serum E2 concentration after 4 weeks or 8 weeks of treatment. Dosages from week 12 onward for patients in the 75 mg/day TD cohort were determined according to the following schedule:
Patients that were treated with 200 mg/day of the compound at the 24-week timepoint in the treatment period were switched to 100 mg/day for the final […] of the study.
EAP was assessed using questionnaires in a daily electronic diary. Mean 28-day scores for pelvic pain were calculated at each month up to 12 months and compared to baseline. Efficacy was assessed as the proportion of patients who had at least 30% reduction in OPP at 12 weeks. DYS, NMPP, dyspareunia, and dyschezia were also assessed. […]

[6] = in vivo
Protocol: BMD of the femoral neck, total hip and lumbar spine was assessed by DXA at baseline and after 12 and 24 weeks of treatment. Reading of DXA scans and monitoring of scan quality, including cross-calibration between sites, was centralized.
All bone mineral density measurements shown below were obtained by assessing bone mineral density at each patient's spine.

[7] = 200 mg/day to week 24, then 100 mg/day, 52 weeks

COc1cc(F)c(-n2c(=O)[nH]c3csc(C(=O)O)c3c2=O)cc1OCc1c(OC)ccc(F)c1F [Compound (VI), 3-[2-fluoro-5-(2,3-difluoro-6-methoxybenzyloxy)4-methoxyphenyl]-2,4-dioxo-1,2,3,4-tetrahydrothieno[3,4d]pyrimidine-5-carboxylic acid]
p value: Improvement in quality of life, Change from baseline in QoL symptom severity score (LS mean) ([1]; 100 mg/day): p = 0.002 | patients achieving menstrual blood loss ≤80 mL and ≥50% reduction from baseline ([1]; 100 mg/day without ABT, 24 weeks): 56.4% | patients achieving menstrual blood loss ≤80 mL and 50% reduction from baseline ([1]; 200 mg/day + ABT (1.0 mg E2 + 0.5 mg NETA), 24 weeks): 75.5% | p value: Improvement in quality of life, Change from baseline in QoL symptom severity score (LS mean) ([1]; 200 mg/day + once-daily ABT): p < 0.001 | affinity for human GnRH receptor [2]: 27.4 nM | p value: Improvement in quality of life, Change from baseline in QoL symptom severity score (LS mean) ([3]; 100 mg/day): p = 0.004 | patients achieving menstrual blood loss ≤80 mL and ≥50% reduction from baseline ([3]; 100 mg/day without ABT): 53.2% | patients achieving menstrual blood loss ≤80 mL and ≥50% reduction from baseline ([3]; 200 mg/day + ABT): 91.6% | p value: Improvement in quality of life, Change from baseline in QoL symptom severity score (LS mean) ([3]; 200 mg/day + once-daily ABT): p < 0.001 | effect on lumbar spine bone mineral density [4]: does not induce a substantial decrease in bone mineral density

COc1cc(F)c(-n2c(=O)[nH]c3csc(C(=O)O)c3c2=O)cc1OCc1c(OC)ccc(F)c1F [GnRH antagonist, 3-[2-fluoro-5-(2,3-difluoro-6-methoxybenzyloxy)4-methoxyphenyl]-2,4-dioxo-1,2,3,4-tetrahydrothieno[3,4d]pyrimidine-5-carboxylic acid]
Dyspareunia Mean (SD) Change from baseline (CFB) ([5]; 50 mg/day, 12 weeks): −0.6 (0.7) | Dyspareunia Mean (SD) Change from baseline (CFB) ([5]; 50 mg/day, 24 weeks): −0.7 (0.8) | Dyspareunia Mean (SD) Change from baseline (CFB) ([5]; 50 mg/day, 52 weeks): −0.5 (1.1) | Dyspareunia Mean (SD) Change from baseline (CFB) ([5]; 75 mg/day, 12 weeks): −0.7 (0.8) | Dyspareunia Mean (SD) Change from baseline (CFB) ([5]; 75 mg/day, 24 weeks): −0.7 (0.8) | Dyspareunia Mean (SD) Change from baseline (CFB) ([5]; 75 mg/day, 52 weeks): −0.9 (0.8) | Dyspareunia Mean (SD) Change from baseline (CFB) ([5]; 100 mg/day, 12 weeks): −0.7 (0.9) | Dyspareunia Mean (SD) Change from baseline (CFB) ([5]; 100 mg/day, 24 weeks): −0.6 (0.8) | Dyspareunia Mean (SD) Change from baseline (CFB) ([5]; 100 mg/day, 52 weeks): −0.7 (1.1) | Dyspareunia Mean (SD) Change from baseline (CFB) [5, 7]: −0.9 (0.9) | Dyspareunia Mean (SD) Change from baseline (CFB) ([5]; 200 mg/day, 12 weeks): −0.8 (1.1)* | Dyspareunia Mean (SD) Change from baseline (CFB) ([5]; 200 mg/day, 24 weeks): −1.0 (1.0) | Dyschezia Mean (SD) CFB ([5]; 50 mg/day, 12 weeks): −1.4 (1.7) | Dyschezia Mean (SD) CFB ([5]; 50 mg/day, 24 weeks): −1.5 (2.1) | Dyschezia Mean (SD) CFB ([5]; 50 mg/day, 52 weeks): −2.3 (1.8) | Dyschezia Mean (SD) CFB ([5]; 75 mg/day, 12 weeks): −2.1 (2.5)* | Dyschezia Mean (SD) CFB ([5]; 75 mg/day, 24 weeks): −2.2 (2.5) | Dyschezia Mean (SD) CFB ([5]; 75 mg/day, 52 weeks): −2.1 (2.9) | Dyschezia Mean (SD) CFB ([5]; 100 mg/day, 12 weeks): −2.0 (1.8)* | Dyschezia Mean (SD) CFB ([5]; 100 mg/day, 24 weeks): −2.0 (2.3) | Dyschezia Mean (SD) CFB ([5]; 100 mg/day, 52 weeks): −2.9 (3.1) | Dyschezia Mean (SD) CFB [5, 7]: −2.6 (2.7) | Dyschezia Mean (SD) CFB ([5]; 200 mg/day, 12 weeks): −1.7 (2.3)* | Dyschezia Mean (SD) CFB ([5]; 200 mg/day, 24 weeks): −2.5 (2.6) | % responders DYS (dysmenorrhea) ([5]; 50 mg/day, 12 weeks): 43.3% | % responders NMPP (non-menstrual pelvic pain) ([5]; 50 mg/day, 12 weeks): 46.2% | % responders OPP (overall pelvic pain) ([5]; 50 mg/day, 12 weeks): 49.4% | % responders DYS (dysmenorrhea) ([5]; 50 mg/day, 24 weeks): 47.5% | % responders NMPP (non-menstrual pelvic pain) ([5]; 50 mg/day, 24 weeks): 50% | % responders OPP (overall pelvic pain) ([5]; 50 mg/day, 24 weeks): 52.5% | % responders DYS (dysmenorrhea) ([5]; 50 mg/day, 52 weeks): 50% | % responders NMPP (non-menstrual pelvic pain) ([5]; 50 mg/day, 52 weeks): 66.7% | % responders OPP (overall pelvic pain) ([5]; 50 mg/day, 52 weeks): 66.7% | Overall Pelvic Pain Responder Rate (VRS score reduction of >30% from baseline) ([5]; 75 mg once daily): 69.2% | % responders DYS (dysmenorrhea) ([5]; 75 mg/day, 12 weeks): 68.2* % | % responders NMPP (non-menstrual pelvic pain) ([5]; 75 mg/day, 12 weeks): 58.5* % | % responders OPP (overall pelvic pain) ([5]; 75 mg/day, 12 weeks): 61.5* % | % responders DYS (dysmenorrhea) ([5]; 75 mg/day, 24 weeks): 58.3% | % responders NMPP (non-menstrual pelvic pain) ([5]; 75 mg/day, 24 weeks): 72.9% | % responders OPP (overall pelvic pain) ([5]; 75 mg/day, 24 weeks): 70.8% | % responders DYS (dysmenorrhea) ([5]; 75 mg/day, 52 weeks): 69.2% | % responders NMPP (non-menstrual pelvic pain) ([5]; 75 mg/day, 52 weeks): 69.2% | % responders OPP (overall pelvic pain) ([5]; 75 mg/day, 52 weeks): 69.2% | % responders DYS (dysmenorrhea) ([5]; 100 mg/day, 12 weeks): 68.6* % | % responders NMPP (non-menstrual pelvic pain) ([5]; 100 mg/day, 12 weeks): 61.5* % | % responders OPP (overall pelvic pain) ([5]; 100 mg/day, 12 weeks): 56.4* % | % responders DYS (dysmenorrhea) ([5]; 100 mg/day, 24 weeks): 82.1% | % responders NMPP (non-menstrual pelvic pain) ([5]; 100 mg/day, 24 weeks): 64.1% | % responders OPP (overall pelvic pain) ([5]; 100 mg/day, 24 weeks): 66.7% | % responders DYS (dysmenorrhea) ([5]; 100 mg/day, 52 weeks): 69.2% | % responders NMPP (non-menstrual pelvic pain) ([5]; 100 mg/day, 52 weeks): 53.8% | % responders OPP (overall pelvic pain) ([5]; 100 mg/day, 52 weeks): 53.8% | Overall Pelvic Pain Responder Rate (VRS score reduction of >30% from baseline) ([5]; 200 mg once daily): 82.4% | % responders DYS (dysmenorrhea) [5, 7]: 64.7% | % responders NMPP (non-menstrual pelvic pain) [5, 7]: 76.5% | % responders OPP (overall pelvic pain) [5, 7]: 82.4% | % responders DYS (dysmenorrhea) ([5]; 200 mg/day, 12 weeks): 78.9* % | % responders NMPP (non-menstrual pelvic pain) ([5]; 200 mg/day, 12 weeks): 47.7% | % responders OPP (overall pelvic pain) ([5]; 200 mg/day, 12 weeks): 56.3* % | % responders DYS (dysmenorrhea) ([5]; 200 mg/day, 24 weeks): 84.1% | % responders NMPP (non-menstrual pelvic pain) ([5]; 200 mg/day, 24 weeks): 72.7% | % responders OPP (overall pelvic pain) ([5]; 200 mg/day, 24 weeks): 77.3% | average bone mineral density losses [6]: less than 5%
